Where a SMILES comes first, the peptide text is derived from it.
Legend:
C. albicans (NCYC1467) = type: cell-based, Candida albicans; details: for MIC: NCYC1467, 16 h; for MBC: NCYC1467, 18 h
Protocol: (§1) The antimicrobial activity of both natural and designed peptides was evaluated by MIC and MBC assays utilizing the broth dilution method. Microorganisms including S. aureus (NCTC10788), MRSA (NCTC 12493 and ATCC43300), Escherichia coli (E. coli) (NCTC 10418), Pseudomonas aeruginosa (P. aeruginosa) (ATCC 27853), Candida albicans (C. albicans) (NCYC 1467) and four clinical MRSA strains (DTMR8, DTMR24, DTMR37, and DTMR121) obtained at the First People’s Hospital of Zhenjiang, China were used. Molecular identification of these four clinical isolates was performed by PCR targeting mecA gene prior to use. After incubation of peptides (ranging from 1 μM to 512 μM, twofold serial dilution) and diluted microorganism cultures for 16 h, the absorbance values of the wells of the 96-well plates were detected at 550 nm with a Synergy HT plate reader (Biotech, United States) and the MICs were defined as the lowest concentration of peptides at which no apparent growth was detected. Ten microliters of culture in the wells were loaded onto Mueller-Hinton agar (MHA) medium and incubated at 37°C for another 18 h. The MBC of the peptide against a microbe was defined as the lowest concentration at which no evidence of colony growth was observed. Five replications were employed for all peptides with different concentrations and controls, and all measurements were made in triplicate.

E. coli (NCTC10418) = type: cell-based, Escherichia coli; details: for MIC: NCTC10418, 16 h
Protocol: as §1

S. aureus (NCTC10788) = type: cell-based, Staphylococcus aureus; details: for MIC: NCTC10788, 16 h; for MBC: NCTC10788, 18 h
Protocol: as §1

horse erythrocytes = type: cell-based
Protocol: Hemolytic property of peptides was measured using erythrocytes prepared from defibrinated horse blood (TCS Biosciences, Botolph Claydon, Buckingham, United Kingdom) as indicated previously ([Wu et al., 2016]).
(§2) FIGURE 5 Toxicities of nigrocin-HL and its analog nigrocin-HLM in vitro and in vivo. Cytotoxicity of nigrocin-HL and nigrocin-HLM against (A) HaCaT and (B) 16HBE. Living cells after treatment with peptides were measured utilizing CCK8 assays, and viability was calculated relative to the untreated control. (C) Hemolysis of nigrocin-HL and nigrocin-HLM was determined against horse erythrocytes. All data represent mean ± SD from three independent experiments performed in triplicate (^∗P < 0.05, ^∗∗∗P < 0.001, compared with nigrocin-HL control group; ^###P < 0.001, compared with nigrocin-HLM control group). (D) In vivo toxicities of these two AMPs. Survival rate of mice in 7 days after single i.p. injection of nigrocin-HL and nigrocin-HLM (20 and 40 mg/kg) was recorded.

[1] = tested on: human keratinocyte cell line HaCaT; type: cell-based
Protocol: (§3) Human keratinocyte cell line HaCaT and human bronchial epithelial cell line 16HBE were obtained from the ATCC. Cells were harvested and diluted to 5 × 10^4 cells/ml using fresh medium. Ninety-nine microliters of diluted cells and 1 μl of peptides (final concentration ranging from 1 to 512 μM, twofold serial dilution, five duplicates) were mixed and seeded into 96-well culture plates. After incubation for 24 h, 10 μl CCK-8 was added into each well, followed by incubation at 37°C for 2 h. Absorbance of each well was determined, and the viabilities of cells were calculated as percentages of the control.
as §2

[2] = tested on: human bronchial epithelial cell line 16HBE; type: cell-based
Protocol: as §3, §2

MRSA (ATCC43300) = type: cell-based, methicillin-resistant S. aureus
Protocol: as §1

[3] = tested on: clinical MRSA strain DTMR121; type: cell-based, methicillin-resistant S. aureus
Protocol: as §1

[4] = tested on: clinical MRSA strain DTMR24; type: cell-based, methicillin-resistant S. aureus
Protocol: as §1

MRSA (NCTC12493) = type: cell-based, methicillin-resistant S. aureus; details: NCTC12493, 16 h
Protocol: as §1

[5] = tested on: clinical MRSA strain DTMR8; type: cell-based, methicillin-resistant S. aureus
Protocol: as §1

[6] = tested on: clinical MRSA strain DTMR37; type: cell-based, methicillin-resistant S. aureus
Protocol: as §1

mature MRSA biofilm = type: cell-based, methicillin-resistant S. aureus
Protocol: Minimum biofilm eradication concentration (MBEC) assay was carried out with a modified microtiter plate method as described previously ([Gao et al., 2017]).
FIGURE 4 Minimum biofilm eradication concentration (MBEC) of peptides against mature MRSA biofilm. All data represent means ± SD from three independent experiments performed in triplicate (^∗∗∗∗P < 0.0001 versus the viability of the corresponding concentration of nigrocin-HL).

[7] = tested on: P. aeruginosa (ATCC27853); type: cell-based, Pseudomonas aeruginosa
Protocol: as §1

BALB/c mice = experiment: In vivo acute toxicity, 7-day mortality; details: single i.p. injection
Protocol: Mice were administered with 20.0 and 40 mg/kg of nigrocin-HL and nigrocin-HLM (i.p.) and a 7-day mortality was recorded.
as §2

[8] = Circular dichroism, percentage of α-helix by K2D3; type: physicochemical; details: CD 190-250 nm, 20°C, 50% TFE in 10 mM ammonium acetate buffer, 100 μM peptide (legend: 50 μM)
Protocol: Additionally, circular dichroism (CD) analyses were carried out utilizing a JASCO J815 Spectropolarimeter (JASCO Inc., United States). Samples were measured within the range of 190-250 nm at 20°C. The parameters were set as: 200 nm/min scanning speed, a bandwidth of 1 nm, and 0.5 nm data pitch. Both peptide samples were dissolved in […] ammonium acetate buffer and 50% TFE in 10 mM ammonium acetate buffer at a concentration of 100 μM. The percentage of the α-helix structure was predicted by the website […]^2 ([Louis-Jeune et al., 2012]).

`CC[C@H](C)[C@H](NC(=O)CNC(=O)[C@H](CO)NC(=O)[C@H](CC(C)C)NC(=O)[C@H](CC(C)C)NC(=O)CN)C(=O)N[C@@H](CC(C)C)C(=O)NCC(=O)N[C@@H](C)C(=O)NCC(=O)N[C@@H](CCCCN)C(=O)N[C@@H](CCCCN)C(=O)N[C@H](C(=O)N[C@H](C(=O)O)C(C)C)[C@@H](C)CC` [Nigrocin-HLD] (H-GLLSGILGAGKKIV-OH; N-terminus and C-terminus assumed) showed an MIC (C. albicans (NCYC1467)) of 42.43 µg/mL, an MBC (C. albicans (NCYC1467)) of 339.46 µg/mL and an MIC (E. coli (NCTC10418)) of 84.87 µg/mL. It also gave an MIC (S. aureus (NCTC10788)) of 42.43 µg/mL and an MBC (S. aureus (NCTC10788)) of 169.73 µg/mL.
With `CC[C@H](C)[C@H](NC(=O)CNC(=O)[C@H](CO)NC(=O)[C@H](CC(C)C)NC(=O)[C@H](CC(C)C)NC(=O)CN)C(=O)N[C@@H](CC(C)C)C(=O)NCC(=O)N[C@@H](C)C(=O)NCC(=O)N[C@@H](CCCCN)C(=O)N[C@@H](CCCCN)C(=O)N[C@H](C(=O)N[C@H](C(=O)N[C@@H](Cc1ccccc1)C(N)=O)C(C)C)[C@@H](C)CC` [Nigrocin-HLM] (H-GLLSGILGAGKKIVF-NH2) the “concentration up to which devoid of hemolytic activity” value (horse erythrocytes) was over 128 µM, the “hemolytic activity (in words)” value (horse erythrocytes) was “negligible hemolytic activity” and the “lowest dosage at which cell growth inhibition occurred” value [1] was over 512 µM. For the same compound, the “lowest dosage at which cell growth inhibition occurred” value [2] was over 512 µM, the MIC (C. albicans (NCYC1467)) was 2.94 µg/mL and the MBC (C. albicans (NCYC1467)) was 5.89 µg/mL. The MIC (E. coli (NCTC10418)) was 11.77 µg/mL, the MBC (E. coli (NCTC10418); NCTC10418, 18 h) was 23.55 µg/mL and the MIC (S. aureus (NCTC10788)) was 2.94 µg/mL. It also gave an MBC (S. aureus (NCTC10788)) of 5.89 µg/mL, an MIC (MRSA (ATCC43300); ATCC43300, 16 h) of 1 µM and an MBC (MRSA (ATCC43300); ATCC43300, 18 h) of 5.89 µg/mL. For the same compound, the MIC ([3]; clinical strain DTMR121, 16 h) was 1 µM, the MBC ([3]; clinical strain DTMR121, 18 h) was 1.47/1.47 mg/l and the MIC ([4]; clinical strain DTMR24, 16 h) was 1 µM. The MBC ([4]; clinical strain DTMR24, 18 h) was 1.47/1.47 mg/l, the MIC (MRSA (NCTC12493)) was 4 µM and the MIC ([5]; clinical strain DTMR8, 16 h) was 1 µM. It also gave an MBC ([5]; clinical strain DTMR8, 18 h) of 2.94 µg/mL, an MIC ([6]; clinical strain DTMR37, 16 h) of 1 µM and an MBC ([6]; clinical strain DTMR37, 18 h) of 2.94 µg/mL. It also gave an MBEC (mature MRSA biofilm) of 8 µM, an MIC ([7]; ATCC27853, 16 h) of 32 µM and an MBC ([7]; ATCC27853, 18 h) of 32 µM. For the same compound, the 7-day mortality (BALB/c mice; 20 mg/kg) was “no mortality was observed” and the 7-day mortality (BALB/c mice; 40 mg/kg) was “no mortality was observed”.
In the case of `CC[C@H](C)[C@H](NC(=O)CNC(=O)[C@H](CO)NC(=O)[C@H](CC(C)C)NC(=O)[C@H](CC(C)C)NC(=O)CN)C(=O)N[C@@H](CC(C)C)C(=O)NCC(=O)N[C@@H](C)C(=O)NCC(=O)N[C@@H](CCCCN)C(=O)N[C@@H](CCCCN)C(=O)N[C@H](C(=O)N[C@H](C(=O)N[C@H]1CSSC[C@@H](C(=O)O)NC(=O)[C@H](CC(C)C)NC(=O)CNC(=O)[C@H](CO)NC(=O)[C@H](CC(C)C)NC(=O)CNC1=O)C(C)C)[C@@H](C)CC` [Nigrocin-HL] (HELM PEPTIDE1{G.L.L.S.G.I.L.G.A.G.K.K.I.V.C.G.L.S.G.L.C}$PEPTIDE1,PEPTIDE1,15:R3-21:R3$$$V2.0; N-terminus and C-terminus assumed), the “hemolytic activity (in words)” value (horse erythrocytes) is reported as “obvious hemolysis”, the “lowest dosage at which cell growth inhibition occurred” value [1] is reported as 32 µM and the “lowest dosage at which cell growth inhibition occurred” value [2] is reported as 32 µM. It also gave an MIC (C. albicans (NCYC1467)) of 62.70 µg/mL, an MBC (C. albicans (NCYC1467)) of 501.61 µg/mL and an MIC (E. coli (NCTC10418)) of 125.40 µg/mL. The “Helicity (%)” value [8] was 31.28%, the MIC (S. aureus (NCTC10788)) was 62.70 µg/mL and the MBC (S. aureus (NCTC10788)) was 250.81 µg/mL. For the same compound, the MBEC (mature MRSA biofilm) was over 16 µM, the 7-day mortality (BALB/c mice; 20 mg/kg) was “mice all died from day 3 to day 7” and the 7-day mortality (BALB/c mice; 40 mg/kg) was “mice all died from day 3 to day 7”.

— paper PMC6280737, “Modification Targeting the “Rana Box” Motif of a Novel Nigrocin Peptide From Hylarana latouchii Enhances and Broadens Its Potency Against Multiple Bacteria” (Frontiers in Microbiology, 2018)
